We go through one molecule from patent publication US20080300298A1, “Honokiol Derivates For the Treatment of Proliferative Disorders” (priority 2005, published 2008).

In one data set the test system is HUVEC. Put plainly: direct toxicity against HUVEC (colorimetric assay). To be noted: 8 ug/ml. The data set is classed as cell-based, human.
The next data set concerns HIF-1a in PC3 cells. The data set is described as follows: HIF-1a induction. The data set is classed as cell-based, human. To be noted: normoxia or hypoxia. As to the method: Bharti, A. C. et al (2004) Blood 103, 3175-3184; Arbiser, J. L et al (1998) Mol. Med. 4, 376-383; Woods, A. et al (2003) Current Biology 13, 2004-2008; Shaw, R. J. et al (2004) PNAS 101, 3329-3335; Buzzai, M. et al (2005) Oncogene 24, 4165-4173). […] PC3 cells were treated with honokiol in normoxia (left) or hypoxia (right). In both cases, HIF-1a induction is dose dependent, and in the case of hypoxia, at least additive.

In the next data set the target is T1, IKK (Homo sapiens, UniProt O14920+O15111).
T1 construct: 200 mg of extract was immunoprecipitated with antibodies against IKKa and IKKb; endogenous in cells; host or cells: H1299 cells, whole-cell extracts, immunoprecipitated
T1 sequence (O15111 whole entry): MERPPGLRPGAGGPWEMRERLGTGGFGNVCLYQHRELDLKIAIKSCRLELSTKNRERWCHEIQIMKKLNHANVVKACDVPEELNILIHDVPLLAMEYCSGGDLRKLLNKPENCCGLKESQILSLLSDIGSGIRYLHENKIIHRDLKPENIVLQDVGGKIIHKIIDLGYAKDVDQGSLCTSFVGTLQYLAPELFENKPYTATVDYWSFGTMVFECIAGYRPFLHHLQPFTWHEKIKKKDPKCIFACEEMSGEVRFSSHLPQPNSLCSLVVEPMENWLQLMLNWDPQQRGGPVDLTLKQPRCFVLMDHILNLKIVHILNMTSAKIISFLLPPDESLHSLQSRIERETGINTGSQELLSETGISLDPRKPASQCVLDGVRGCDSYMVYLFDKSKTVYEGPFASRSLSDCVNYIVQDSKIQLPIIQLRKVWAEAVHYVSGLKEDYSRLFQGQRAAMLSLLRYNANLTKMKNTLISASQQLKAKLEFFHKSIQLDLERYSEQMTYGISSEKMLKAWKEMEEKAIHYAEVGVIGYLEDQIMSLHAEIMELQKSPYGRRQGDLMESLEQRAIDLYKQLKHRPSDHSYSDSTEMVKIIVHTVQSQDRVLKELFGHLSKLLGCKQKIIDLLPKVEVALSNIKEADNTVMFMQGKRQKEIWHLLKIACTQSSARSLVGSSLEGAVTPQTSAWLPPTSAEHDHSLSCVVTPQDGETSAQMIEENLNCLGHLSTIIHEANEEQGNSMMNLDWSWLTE
T1 sequence (O14920 whole entry): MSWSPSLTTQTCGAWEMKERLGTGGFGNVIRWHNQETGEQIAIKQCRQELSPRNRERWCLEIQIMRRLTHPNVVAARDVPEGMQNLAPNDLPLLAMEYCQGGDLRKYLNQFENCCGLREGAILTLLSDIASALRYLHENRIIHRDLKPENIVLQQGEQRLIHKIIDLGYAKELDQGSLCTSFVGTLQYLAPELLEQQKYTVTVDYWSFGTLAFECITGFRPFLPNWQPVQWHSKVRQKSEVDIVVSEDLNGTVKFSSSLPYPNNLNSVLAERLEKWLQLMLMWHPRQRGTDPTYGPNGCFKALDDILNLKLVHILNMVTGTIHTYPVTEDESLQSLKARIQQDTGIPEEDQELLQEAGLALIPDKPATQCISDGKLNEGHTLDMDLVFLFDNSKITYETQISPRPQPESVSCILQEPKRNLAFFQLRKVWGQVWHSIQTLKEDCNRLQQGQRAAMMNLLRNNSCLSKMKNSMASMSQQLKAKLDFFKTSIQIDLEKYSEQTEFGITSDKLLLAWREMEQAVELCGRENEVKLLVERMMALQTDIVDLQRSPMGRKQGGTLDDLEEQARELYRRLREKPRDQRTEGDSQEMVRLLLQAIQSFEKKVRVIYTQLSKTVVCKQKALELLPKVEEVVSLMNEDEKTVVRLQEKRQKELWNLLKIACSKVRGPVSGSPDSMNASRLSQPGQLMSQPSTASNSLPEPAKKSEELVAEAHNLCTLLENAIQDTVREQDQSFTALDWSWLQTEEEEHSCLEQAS
T1 sequence (Q9Y6K9 whole entry partner): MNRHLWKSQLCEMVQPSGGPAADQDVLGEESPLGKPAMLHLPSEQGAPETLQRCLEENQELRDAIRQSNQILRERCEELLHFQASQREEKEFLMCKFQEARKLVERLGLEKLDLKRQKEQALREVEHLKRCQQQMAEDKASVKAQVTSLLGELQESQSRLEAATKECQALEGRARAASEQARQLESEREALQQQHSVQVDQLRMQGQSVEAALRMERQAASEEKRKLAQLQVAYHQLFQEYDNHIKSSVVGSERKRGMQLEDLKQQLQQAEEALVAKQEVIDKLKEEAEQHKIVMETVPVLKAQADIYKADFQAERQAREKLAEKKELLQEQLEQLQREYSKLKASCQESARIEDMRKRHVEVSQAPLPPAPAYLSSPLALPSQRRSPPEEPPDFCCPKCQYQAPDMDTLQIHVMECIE
The data set is described as follows: IKK assay (immune complex kinase assay). It is filed as cell-based. On the procedure:
Honokiol inhibits TNF-induced activation of NF-kB. H1299 cells were incubated with […] honokiol for 12 h, treated with 0.1 nM TNF for the indicated times, and then analyzed for NF-kB activation by EMSA. (B) H1299 cells (2×10^6/ml) were incubated with […] honokiol for 12 h at 37° C., treated with 0.1 nM TNF for the indicated times at 37° C., and then tested for IkBa (upper panel) in cytosolic fractions by Western blot analysis. Equal protein loading was evaluated by b-actin (lower panel). (C) Honokiol blocks the phosphorylation and ubiquitination (D) of IkBaby TNF. […] To examine the effect of honokiol on the level of expression of IKK proteins, 30 mg of whole-cell extract was analyzed on 10% SDS-PAGE, electrotransferred, and immunoblotted with the indicated antibodies as described in Materials and Methods. […] Nuclear extracts were prepared and analyzed by Western blotting using antibodies against p65. […] The cytoplasmic and nuclear extracts were analyzed by Western blotting using antibodies against the phosphorylated form of p65.
IKK assay. To determine the effect of honokiol on TNF-induced IKK activation, we analyzed IKK by a method essentially as described previously (Shishodia, S., et al. 2003 Cancer Res. 63:4375-4383). […]

Consider `C=CCc1ccc(O)c(-c2ccc(O)c(CC=C)c2)c1` [HNK, Honokiol], for which the “viability of HUVEC cells” value in the data set with HUVEC was “did not affect the viability of HUVEC cells”. The HIF-1a induction result in the data set on HIF-1a in PC3 cells is “activated HIF-1a in prostate cancer cells in a dose dependent manner”. Also, the “TNF-induced IKK activation” value at IKK (cells treated with honokiol 12 h, 0.1 nM TNF) is on record as “completely suppressed TNF-induced activation of IKK”. In addition, the “IKK activity in vitro (direct effect)” value at IKK (in vitro) is “did not directly interfere with the IKK activity”.
